Results reported in publication PMC12974487, “Inhibition of FicD-mediated AMPylation and deAMPylation by isoprenoid diphosphates” (Proceedings of the National Academy of Sciences of the …, 2026).
Where a chain is given by its changes, count along the chain named.

Assays:
FicD^E234G = target: T1, FicD^E234G (Homo sapiens, UniProt Q9BVA6, E234G); experiment: MIDAS metabolite screen, FicD^E234G; format: binding; conditions: cutoff Q < 0.05 and |Log2 corrected fold change| > 2, metabolites 5 µM
T1 construct: soluble ER luminal domain (residues 105 to 458) of wild-type human FicD and three mutants; 6xHis-Sumo (N, cleaved yes); made in house; host or cells: Rosetta(DE3) E. coli
T1 sequence (Q9BVA6 105-458 E234G): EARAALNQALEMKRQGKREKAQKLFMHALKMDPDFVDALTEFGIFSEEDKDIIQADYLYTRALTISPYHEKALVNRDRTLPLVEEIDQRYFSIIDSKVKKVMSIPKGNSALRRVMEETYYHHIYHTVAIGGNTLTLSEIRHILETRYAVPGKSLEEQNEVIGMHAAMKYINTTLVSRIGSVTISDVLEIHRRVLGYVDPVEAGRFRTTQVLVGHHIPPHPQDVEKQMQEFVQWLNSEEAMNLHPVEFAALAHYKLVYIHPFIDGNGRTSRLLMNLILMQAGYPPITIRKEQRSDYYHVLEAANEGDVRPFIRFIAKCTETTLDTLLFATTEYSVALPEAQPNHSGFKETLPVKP
Source text: To identify small-molecule metabolite interactions with FicD, we applied an unbiased high-throughput screening approach known as MIDAS ([44]).

FicD^L258D = target: T2, FicD^L258D (Homo sapiens, UniProt Q9BVA6, L258D); experiment: MIDAS metabolite screen, FicD^L258D; format: binding; conditions: cutoff Q < 0.05 and |Log2 corrected fold change| > 2, metabolites 5 µM
T2 construct: soluble ER luminal domain (residues 105 to 458) of wild-type human FicD and three mutants; 6xHis-Sumo (N, cleaved yes); made in house; host or cells: Rosetta(DE3) E. coli
T2 sequence (Q9BVA6 105-458 L258D): T1 sequence (Q9BVA6 105-458 E234G) with G130E, L154D

SMILES	MIDAS protein-metabolite interaction (enrichment/depletion) (FicD^E234G)	MIDAS protein-metabolite interaction (enrichment/depletion) (FicD^L258D)
Nc1ncnc2c1ncn2[C@@H]1O[C@H](COP(=O)(O)OP(=O)(O)O)[C@@H](O)[C@H]1O [ADP]	significantly enriched	–
CC(C)=CCC/C(C)=C/CC/C(C)=C/COP(=O)(O)OP(=O)(O)O [FPP, farnesyl-pyrophosphate]	–	significantly enriched
CC(C)=CCC/C(C)=C/COP(=O)(O)OP(=O)(O)O [GPP, geranyl-pyrophosphate]	significantly enriched	significantly enriched
